Data: US4623648A, “1-azaxanthone for use as therapeutic agent as an antipyretic, analgesic, anti-inflammatory and bronchodilator” (priority 1981, dated 1986)
Values after ≈ are worked out from the molar mass of the structure shown.

Key:
[1] = tested on: mice; test: Acetic acid induced writhing in mice; assay type: in vivo; conditions: Mus musculus; oral; 95% confidence limits 2.1-3.4
Protocol: (§1) Sprague-Dawley rats, Swiss mice, California rabbits and mongrel guinea pigs and cats were used. 1-azaxanthone was administered as a suspension in 0.5 % w/v of carboxymethyl-cellulose in distilled water for oral and i.p. administration. When administered i.v. or to the nutrient liquid of the isolated tissues, a solution of the compound in isopropylidenglycerol (15 mg/ml) was used.
Acetic acid induced writhing in mice (according to R. Koster et al., Fedn. Proc. 1959, 18, 412).

[2] = tested on: rat inflamed paw; test: Hyperalgesia in rat inflamed paw (Randall and Selitto); assay type: in vivo; conditions: po, per os, read-out: AID2 (dose that increases twice the analgesic threshold of the control animals)
Protocol: as §1
Hyperalgesia in rat inflamed paw (according to L. O. Randall and J. J. Selitto, Arch. Int. Pharmacodyn. 1957, 111, 409).

[3] = tested on: mice; test: Hot plate test in mice; assay type: in vivo; conditions: Mus musculus; oral, 1 hour before; plate 57°±0.5° C.; 95% confidence limits 11-39
Protocol: as §1
Hot plate test in mice. An analgesimeter LETICA model 7000 was used, the temperature of the plate being maintained at 57°±0.5° C. The test compound was administered by oral route 1 hour before placing the animals on the plate.

[4] = tested on: rats; test: D'Amour and Smith test in rats; assay type: in vivo; conditions: oral dose of ca. 100 mg/kg, 1 hour before testing
Protocol: as §1
"D'Amour and Smith" test in rats (see J. Pharmacol. Exptl. Therap., 1941, 72, 74). An analgesimeter LETICA model 7100 was used. An oral dose of ca. 100 mg/kg of 1-azaxanthone, administered 1 hour before testing produced analgesia in 50% of the animals.

[5] = tested on: rats; test: Yeast-induced hyperthermia in rats; assay type: in vivo
Protocol: as §1
Yeast-induced hyperthermia in rats (according to U. M. Teotino et al., J. Med. Chem. 1963, 6, 248). The test compound was administered by oral route 1 hour before the s.c. injection of the pyrogenic agent.

[6] = tested on: rat paw oedema; test: Carrageenan rat paw oedema; assay type: in vivo; conditions: po, per os, 95% confidence limits 6.0-37.3
Protocol: as §1
(§2) Carrageenan rat paw oedema (according to C. A. Winter et al., Proc. Soc. Exptl. Biol. N.Y. 1962, 111, 544).

[7] = tested on: bilaterally suprarenalectomized rats; test: Carrageenan paw oedema in bilaterally suprarenalectomized rats; assay type: in vivo; conditions: 200 mg/kg per os
Protocol: as §1, §2

[8] = tested on: granuloma pouch; test: Granuloma pouch; conditions: in vivo
[9] = tested on: rats; test: Diuretic activity in rats; assay type: in vivo; conditions: 10 mg/kg oral
Protocol: as §1
1-azaxanthone was administered orally to rats (groups of 10) in a volume of 5 ml/rat immediately before allocating the animals to metabolism cages. The total volume of urine was measured 6 and 24 hours later. 10 mg/kg of 1-azaxanthone increased the total volume with respect to the control group by 94% in the first 6 hours and 44% in the 24 hours period.

[10] = Acute toxicity in rats and mice (overall ranges); conditions: in vivo, depending on species and sex
Protocol: (§3) The acute toxicity of 1-azaxanthone was evaluated in rats and mice. LD50 values ranged between 400-600 mg/kg (i.p. route) and between 600-2000 mg/kg (oral route) depending on species and sex.

[11] = Acute toxicity in rats; conditions: rat, in vivo
Protocol: as §3

[12] = tested on: rats; test: 14 day oral tolerance of gastric and rectal mucosae and liver elimination of sulphobromophthalein; assay type: in vivo; conditions: 200 mg/kg/day oral, 14 consecutive days
[13] = tested on: rats; test: 6 months toxicity evaluation in rats; assay type: in vivo; conditions: 25, 50 and 100 mg/kg/day p.o.
[14] = tested on: rats; test: Preliminary teratogenesis studies in rats; assay type: in vivo
[15] = tested on: cardiocirculatory system; test: Effect on the cardiocirculatory system; assay type: in vivo; conditions: rats, cats and dogs
[16] = Solubility by the equilibrium (saturation) technique; assay type: physicochemical; conditions: 20-25° C.
Protocol: The solubilities of 1-azaxanthone in several solvents were determined at 20-25° C. by the equilibrium (saturation) technique, measuring the concentration spectrophotometrically at 335 nm or by high pressure liquid chromatography/spectrophotometry. The following values (in mg/ml) were obtained: water: 0.08; 0.1 N HCl: 0.07; 0.1 N NaOH: 0.07; buffer pH 7.4: 0.06; methanol: 7.6; ethanol: 6.2; propyleneglycol: 5.0; ethyl acetate: 20; chloroform: >50; dioxane: 65.

[17] = tested on: schistosomiasis infections; conditions: F. G. Mann, J. A. Reid, J. Chem. Soc. 1952; cited from earlier work

**Q.** Which ED50 [1] does the source give for `O=c1c2ccccc2oc2ncccc12` [1-azaxanthone] here?
**A.** 2.8 mg/kg

**Q.** And the ED (2-fold analgesic threshold) [2]?
**A.** 18.4 mg/kg

**Q.** What about the ED50 [3] of the same compound?
**A.** 21 mg/kg

**Q.** What about the animals with analgesia [4] of the same compound?
**A.** 50%

**Q.** And the antipyretic effect ([5]; 0.375 mg/kg, 2nd and 3rd hours)?
**A.** statistically significant antipyretic effect

**Q.** And the prevention of hyperthermia ([5]; 6.2 mg/kg oral, 4 hours after yeast injection (control increase 1.8° C.))?
**A.** completely prevented the hyperthermia

**Q.** And the “decrease of hyperthermia with respect to control increase” value ([5]; 6.2 mg/kg oral, 6 hours after yeast injection (control total increase 1.4° C.))?
**A.** 0.8 °C

**Q.** What about the ED50 [6] of the same compound?
**A.** 21.7 mg/kg

**Q.** What about the inhibition of oedema [7] of the same compound?
**A.** 39%

**Q.** And the “activity in granuloma pouch” value [8]?
**A.** showed activity

**Q.** And the sodium excretion [9]?
**A.** increased

**Q.** And the “increase of total urine volume with respect to control” value ([9]; 24 hours period)?
**A.** 44%

**Q.** And the “increase of total urine volume with respect to control” value ([9]; first 6 hours)?
**A.** 94%

**Q.** What about the LD50 ([10]; ip) of the same compound?
**A.** 400 to 600 mg/kg

**Q.** And the LD50 ([10]; oral)?
**A.** 600 to 2000 mg/kg

**Q.** And the LD50 ([11]; ip, female rats)?
**A.** 420 mg/kg

**Q.** What about the LD50 ([11]; po, orally, male rats) of the same compound?
**A.** ~2000 mg/kg

**Q.** What about the “liver elimination of sulphobromophthalein” value [12] of the same compound?
**A.** eliminated sulphobromophthalein well

**Q.** And the “tolerance of gastric and rectal mucosae” value [12]?
**A.** tolerated the compound well

**Q.** What about the “toxicity results compared with the 92 days study” value [13] of the same compound?
**A.** almost the same as in the 92 days study

**Q.** And the teratogenic potential [14]?
**A.** did not show any clear specific teratogenic potential

**Q.** And the “effect on the cardiocirculatory system” value [15]?
**A.** no effect on the cardiocirculatory system

**Q.** And the solubility ([16]; 0.1 N HCl)?
**A.** 70 µg/mL (≈ 0.355 mM)

**Q.** And the solubility ([16]; 0.1 N NaOH)?
**A.** 70 µg/mL (≈ 0.355 mM)

**Q.** And the solubility ([16]; aqueous buffer, buffer pH 7.4)?
**A.** 60 µg/mL (≈ 0.304 mM)

**Q.** What about the solubility ([16]; organic solvent or mixture, chloroform) of the same compound?
**A.** > 50000 µg/mL

**Q.** What about the solubility ([16]; organic solvent or mixture, dioxane) of the same compound?
**A.** 65000 µg/mL (≈ 330 mM)

**Q.** What about the solubility ([16]; organic solvent or mixture, ethanol) of the same compound?
**A.** 6200 µg/mL (≈ 31.4 mM)

**Q.** And the solubility ([16]; organic solvent or mixture, ethyl acetate)?
**A.** 20000 µg/mL (≈ 101 mM)

**Q.** And the solubility ([16]; organic solvent or mixture, methanol)?
**A.** 7600 µg/mL (≈ 38.5 mM)

**Q.** And the solubility ([16]; organic solvent or mixture, propyleneglycol)?
**A.** 5000 µg/mL (≈ 25.4 mM)

**Q.** What about the solubility ([16]; water) of the same compound?
**A.** 80 µg/mL (≈ 0.406 mM)

**Q.** And the “effect on schistosomiasis infections” value [17]?
**A.** did not show any "significant effect on schistosomiasis infections"
